Data published in patent US11845760B2, “PRMT5 inhibitors” (AMGEN INC., priority 2020, dated 2023).
pIC50: −log10 of the molar value. Where two headings read alike, the source gives them in different places.

What was measured:
HCT116 MTAP null cells = experiment: HCT116 MTAP null cell line proliferation (CellTiter-Glo cell viability, 6 days); format: cell-based; conditions: HCT116 MTAP null cells, 6 days of treatment, CellTiter-Glo cell viability, read-out: HCT-116 MTAP null IC50
In short: (§1)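 Isogenic HCT116 pair (both MTAP alleles knocked out vs parent) in RPMI 1640 + 10% FBS, seeded overnight at 37° C, 5% CO2, then exposed 6 days to 8- or 9-point 1:3 dilutions from 1 or 10 μM. CellTiter-Glo luminescence; IC50 from sigmoidal fit, Hill slope fixed −1, top 100%, or 4-parameter logistic.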

HCT116 WT cells = experiment: HCT116 WT cell line proliferation (CellTiter-Glo cell viability, 6 days); format: cell-based; conditions: HCT116 WT (parent) cells, 6 days of treatment, CellTiter-Glo cell viability, read-out: HCT-116 WT IC50
In short: as §1

| Compound | pIC50 (HCT116 MTAP null cells; HCT116-MTAP null, 144 h) | pIC50 (HCT116 WT cells; Homo sapiens, HCT-116, 144 h) | pIC50 (HCT116 MTAP null cells) | pIC50 (HCT116 WT cells) |
| --- | --- | --- | --- | --- |
| Cn1ncc2c(N)nc3cc(F)c(C(=O)N4CCC(c5ccc(C(F)(F)F)cn5)C4)cc3c21 (racemic) [Example 541, (4-amino-7-fluoro-1-methyl-1H-pyrazolo[4,3-c]quinolin-8-yl)((3R)-3-(5-(trifluoromethyl)-2-pyridinyl)-1-pyrrolidinyl)methanone and (4-amino-7-fluoro-1-methyl-1H-pyrazolo[4,3-c]quinolin-8-yl)((3S)-3-(5-(trifluoromethyl)-2-pyridinyl)-1-pyrrolidinyl)methanone] | 7.25 | 5.27 | – | – |
| Nc1nc2cnc(C(=O)N3CCOCC3c3ccc(F)c(C(F)(F)F)c3)cc2c2c1COC2 (racemic) [Example 349, (4-amino-1,3-dihydrofuro[3,4-c][1,7]naphthyridin-8-yl)((3R)-3-(4-fluoro-3-(trifluoromethyl)phenyl)-4-morpholinyl)methanone and (4-amino-1,3-dihydrofuro[3,4-c][1,7]naphthyridin-8-yl)((3S)-3-(4-fluoro-3-(trifluoromethyl)phenyl)-4-morpholinyl)methanone] | – | – | 6.30 | 4.68 |
| Nc1nc2cnc(C(=O)N3CCOCC3c3c(F)cc(Br)cc3F)cc2c2c1COC2 (racemic) [Example 505, (4-amino-1,3-dihydrofuro[3,4-c][1,7]naphthyridin-8-yl)((3R)-3-(4-bromo-2,6-difluorophenyl)-4-morpholinyl)methanone and (4-amino-1,3-dihydrofuro[3,4-c][1,7]naphthyridin-8-yl)((3S)-3-(4-bromo-2,6-difluorophenyl)-4-morpholinyl)methanone] | 6.48 | 4.67 | – | – |
| C[C@H]1OCc2c1c(N)nc1ccc(C(=O)N3C[C@@H](c4ccc(F)cc4)C(C)(C)C3)cc21 (single isomer, unassigned) [Example 462] | 6.23 | 4.85 | – | – |
| COc1ccc([C@H]2COC[C@@H](C)N2C(=O)c2cc3c4c(c(N)nc3cc2F)COC4)nn1 [Example 540, (4-amino-7-fluoro-1,3-dihydrofuro[3,4-c]quinolin-8-yl)((3S,5R)-3-(6-methoxy-3-pyridazinyl)-5-methyl-4-morpholinyl)methanone] | 7.72 | 6.24 | – | – |
| N#Cc1cnc(C2COCCN2C(=O)c2ccc3nc(N)c4c(c3c2)COC4)cc1Cl (racemic) [Example 492, 4-chloro-6-[rac-(3S)-4-(4-amino-1,3-dihydrofuro[3,4-c]quinoline-8-carbonyl)morpholin-3-yl]pyridine-3-carbonitrile] | 6.12 | 6.50 | – | – |
| Nc1nc2cnc(C(=O)N3CCOCC3c3ccc(CC(F)(F)F)cc3)cc2c2c1COC2 (racemic) [Example 509, (4-amino-1,3-dihydrofuro[3,4-c][1,7]naphthyridin-8-yl)((3R)-3-(4-(2,2,2-trifluoroethyl)phenyl)-4-morpholinyl)methanone and (4-amino-1,3-dihydrofuro[3,4-c][1,7]naphthyridin-8-yl)((3S)-3-(4-(2,2,2-trifluoroethyl)phenyl)-4-morpholinyl)methanone] | 6.49 | 4.97 | – | – |
| Nc1nc2cnc(C(=O)N3CCOC[C@@H]3c3ccc(OC(F)F)cn3)cc2c2c1COC2 [Example 516, (4-amino-1,3-dihydrofuro[3,4-c][1,7]naphthyridin-8-yl)((3S)-3-(5-(difluoromethoxy)-2-pyridinyl)-4-morpholinyl)methanone] | 6.68 | 5.04 | – | – |
| COc1ccc([C@H]2COC[C@@H](C)N2C(=O)c2ccc3nc(N)c4c(cnn4C)c3c2)nn1 [Example 538, (4-amino-3-methyl-3H-pyrazolo[3,4-c]quinolin-8-yl)((3S,5R)-3-(6-methoxy-3-pyridazinyl)-5-methyl-4-morpholinyl)methanone] | 6.55 | 4.88 | – | – |
| C[C@@H]1COC[C@H](c2ccc(C(F)(F)F)nn2)N1C(=O)c1cc2c3c(c(N)nc2cn1)COC3 [Example 555, (4-amino-1,3-dihydrofuro[3,4-c][1,7]naphthyridin-8-yl)((3R,5S)-3-methyl-5-(6-(trifluoromethyl)-3-pyridazinyl)-4-morpholinyl)methanone] | 7.39 | 5.91 | – | – |
| Cn1ncc2c(N)nc3cc(Cl)c(C(=O)N4CC(O)(c5ccc(C(F)(F)F)cc5)C4)cc3c21 [Example 444, (4-amino-7-chloro-1-methyl-1H-pyrazolo[4,3-c]quinolin-8-yl)(3-hydroxy-3-(4-(trifluoromethyl)phenyl)-1-azetidinyl)methanone] | 7.74 | 6.30 | – | – |
